Experimental data reported in patent US12616753B2, “HSP70 inhibitors and methods of using same” (THE WISTAR INSTITUTE, priority 2020, dated 2026).

Columns and labels:
MC38 tumors = experiment: Flow cytometric immunophenotyping of MC38 tumors; assay type: in vivo, mouse; details: 10 mg/kg every 48 hours, 20 days
Experimental: FIG. 6A: 1×10^6 MC38 cells were injected subcutaneously into the right flank of 6-8-week-old male C57Bl/6 mice. Once tumors reached an approximate volume of 100 mm^3, mice were treated with AP-4-139B (10 mg/kg) every 48 hours. 20 days after the start of treatment, tumors were excised, weighed, minced and digested. Tumor-infiltrating and splenic conventional CD4 (cCD4) (Live CD45^+ DUMP^− CD3^+CD4^+Foxp3^−), Tregs (Live CD45^+ DUMP^− CD3^+CD4^+Foxp3^+), CD8 (Live CD45^+ DUMP^− CD3^+CD8^+) T-cells, and Dendritic Cells (Live CD45^+ DUMP^− CD3^−CD11c^+MHCII^+) numbers were assessed by flow cytometry. * p<0.05, n.s. not significant. n=8 mice per group. FIG. 6B: MC38 and HT-29 cells were treated with the indicated concentrations of AP-4-139B for either 8 or 24 hours; media was collected and subjected to WB for HMGB1. Data shown are representative of three technical replicates. FIG. 6C: MC38 and HT-29 cells were treated with the indicated concentrations of AP-4-139B for three hours and then assayed for extracellular ATP release. […]
Tumors were excised, weighed with an electronic scale, minced and digested in 5 mL HBSS containing 1 mg/ml Type 1 Collagenase from Clostridium histolyticum (Sigma-Aldrich) for 30 minutes at 37° C. […] Samples were analyzed using FACSymphony A3 (BD Biosciences) flow cytometer equipped with 5 lasers. Data were analyzed using FlowJo Version 10 and GraphPad Prism software.

[1] = system: 1205Lu and HT-29 tumor cell lines; experiment: Seahorse XF Cell Mito Stress Test, tumor cell lines; assay type: cell-based, human; details: 500 nM (sublethal), 24 hours
Experimental: FIG. 2A: IMR90 cells (non-transformed fibroblasts), 1205Lu (melanoma), and HT-29 (CRC) cancer cells were treated with sub-lethal doses (500 nM) of the HSP70 inhibitors PET-16 (positive control) or AP-4-139B for 24 hours. Cells were then subjected to the Seahorse Mito Stress Test Assay. Injections were Oligomycin (1 μM, line A), FCPP (0.5-1 μM, line B), and Rotenone/Antimycin A (1 μM, line C). Each graphical representation indicates the mean±standard deviation of a minimum of 5 technical replicates. […] Each experiment was performed in triplicate and independently repeated twice. FIGS. 2B-2D: Basal Oxygen Consumption Rate (ORC) (FIG. 2B), Maximal OCR (FIG. 2C), and ATP production (FIG. 2D) were analyzed in IMR90 fibroblasts, non-transformed colonic epithelial cells (CCD 841 CoN), 1205Lu melanoma cells and HT-29 CRC cells, in the presence or absence of 500 nM HSP70 inhibitors or negative control (VY-3-277). All experiments were performed in triplicate, with each group containing 5-6 technical replicates. ** p<0.01, *** p<0.001, n.s. not significant.
The XF Cell Mito Stress Test was performed. […] For extracellular ATP release, ATP was measured using the CellTiter-Glo Kit (Promega catalog #G7570). […] 10 μl of CellTiter-Glo Reaction Mix was then mixed with 10 μl of culture media; the luminescence signal was detected using a luminometer.

| Compound | abundance of immune cell types in spleens (MC38 tumors) | immune cell infiltrates (CD4+ T cell, CD8+ T cell, dendritic cells, Tregs) in tumors (MC38 tumors) | basal oxygen consumption rate and ATP production in tumor cell lines [1] |
| --- | --- | --- | --- |
| c1ccc(-c2cn3nc(CCCCCC[P+](c4ccccc4)(c4ccccc4)c4ccccc4)sc3n2)cc1 [AP-4-139B, Triphenyl(6-(6-phenylimidazo[2,1-b][1,3,4]thiadiazol-2-yl)hexyl)phosphonium bromide] | no changes in abundance | significantly increased immune cell infiltrates | reduced basal oxygen consumption rate and ATP production |
| C(#C[P+](c1ccccc1)(c1ccccc1)c1ccccc1)c1ccccc1 [PET-16, Triphenyl(phenylethynyl)phosphonium bromide, reference compound] | – | – | minimal activity |
